Test system: imiquimod-induced psoriatic mice
Conditions: subcutaneous injection of CysA (3 mg/mL, 100 μL, 7 times, day 1 to day 7); psoriasis mice; HPLC; mean ± SD
Description: BALB/c mice were used to develop the psoriatic model. […] The back hair of the mice was shaved.
Briefly, blood (500 μL) was collected from the mice orbit and mixed with 4 mL ether. […] Mice skin, liver, and kidney samples were collected and weighed. […] In addition, the mice skin in the treatment area and the non-treated area was cryo-sectioned and stained with hematoxylin and eosin. The epidermal thickness of each skin sample was measured at three random sites with ImageJ software (V1.8.0).

For cyclosporine A [CysA], the “drug accumulation in mice kidney” value was 64.07 ± 10.25 (μg/g)/mg.
